In patent publication US20130096067A1, “DROSOPHILA TUMOR STEM CELL MODEL AND USES THEREOF” (priority 2011, published 2013):
Where a name gives a salt, the structure may show the parent alone. Read-outs that look alike come from different tables or passages of the source.

Test system: Raf-1^gof intestinal tumors
Details: for Log2 (fold) of luciferase activity relative to DMSO controls / Fold (luciferase activity relative to DMSO controls): ICCB compounds fed in vials to flies with one-day old Raf-1^gof tumors
[1] = screen of 480 ICCB compounds in vials, compounds fed to flies with one-day old Raf-1^gof tumors, assessed three days later, esg-Gal4 luciferase
[2] = screen of 480 ICCB compounds in vials, compounds fed to flies with one-day old Raf-1^gof tumors, assessed three days later, esg-Gal4 luciferase, averaged from multiple wells
[3] = assessed three days later, averaged from multiple wells
Throughout, for Fold (luciferase activity relative to DMSO controls): test concentration or dose not given here.
Throughout, for Fold (luciferase activity, fold difference relative to DMSO controls): test concentration or dose not given here.
Throughout, for Log2 (fold) (luciferase activity, log2 of the fold difference relative to DMSO controls): test concentration or dose not given here.
Throughout, for Log2 (fold) of luciferase activity relative to DMSO controls: test concentration or dose not given here.

Compound | Log2 (fold) (luciferase activity, log2 of the fold difference relative to DMSO controls) [1] | Fold (luciferase activity, fold difference relative to DMSO controls) [2] | Log2 (fold) of luciferase activity relative to DMSO controls (assessed three days later) | Fold (luciferase activity relative to DMSO controls) [3] [fold] | also measured
CCCCC[C@H](O)/C=C/[C@H]1[C@H](O)CC(=O)[C@@H]1CCCCCCC(=O)O [PROSTAGLANDIN E1] | −0.561 | 0.678 | – | – | –
N#CC(=Cc1ccc2[nH]ccc2c1)C(N)=C(C#N)C#N [tyrphostin AG-370] | – | – | 0.314 | 1.243 | –
Nc1cc(N2CCCCC2)nc(N)[n+]1OS(=O)(=O)[O-] [MINOXIDIL SULFATE] | −0.417 | 0.749 | – | – | –
N#CC(C#N)=NNc1ccc(OC(F)(F)F)cc1 [FCCP] | −0.313 | 0.805 | – | – | –
KN-62 | −0.513 | 0.701 | – | – | –
C=C[C@@]1(C)CC(=O)[C@]2(O)[C@@]3(C)[C@@H](O)CCC(C)(C)[C@@H]3[C@H](O)[C@H](OC(C)=O)[C@@]2(C)O1 [forskolin] | −0.449 | 0.732 | – | – | –
CCCCC/C=C\C/C=C\C/C=C\C/C=C\CCCC(=O)NCC(=O)O [N-ARACHIDONOYLGLYCINE] | – | – | – | – | Fold (luciferase activity, fold difference relative to DMSO controls) (in vivo): 0.664; Log2 (fold) (luciferase activity, log2 of the fold difference relative to DMSO controls) (in vivo): −0.590
CCCCCC1OC1C/C=C\C/C=C\C/C=C\CCCC(=O)O (stereo not shown) [14,15-EPOXYEICOSATRIENOIC ACID] | – | – | 0.322 | 1.250 | –
Oc1cc2c(cc1O)CN(C(=S)NCCc1ccc(Cl)cc1)CCC2 [capsazepine] | – | – | −0.030 | 0.979 | –
CCCCC/C=C\C\C=C/C=C/C=C/[C@@H](SC[C@H](NC(=O)CC[C@H](N)C(=O)O)C(=O)NCC(=O)O)[C@@H](O)CCCC(=O)O [LEUKOTRIENE C4] | – | – | 0.114 | 1.082 | –
CCCCCCCCCCCCCCC[C@@H](O)[C@H](CO)NC(C)=O [C2 DIHYDROCERAMIDE] | −0.466 | 0.724 | – | – | –
COC(=O)C1=C(C)NC(C)=C(C(=O)OCCN(C)Cc2ccccc2)C1c1cccc([N+](=O)[O-])c1 (stereo not shown) [NICARDIPINE] | −0.433 | 0.741 | – | – | –
Cc1ccc2c(c1)C(=O)C1(O)CCN(c3ccccc3)C1=N2 (stereo not shown) [Blebbistatin] | – | – | 0.196 | 1.146 | –
N#C/C(=C\c1ccc(O)c(O)c1)C(=O)OC/C=C/c1ccccc1 [CDC] | −0.360 | 0.779 | – | – | –
CO[C@H](C/C=C\C=C\CC/C=C/C[C@H](C)/C=C/C(=C\C(=O)O)CC(=O)O)/C(C)=C\C=C(/C)C(=O)O [bongkrekic acid] | – | – | −0.102 | 0.932 | –
COc1ccc2c(c1)CC[C@@H]1[C@@H]2CC[C@]2(C)[C@@H](NCCCCCCN3C(=O)C=CC3=O)CC[C@@H]12 [U73122] | −0.865 | 0.549 | – | – | –
O=Cc1c2[nH]c3ccccc3c2cc2[nH]c3ccccc3c12 [6-FORMYLINDOLO [3,2-B] CARBAZOLE] | −0.273 | 0.828 | – | – | –
CC/C(=C(\c1ccccc1)c1ccc(OCCN(C)C)cc1)c1ccccc1 [tamoxifen, reference compound] | −1.562 | 0.339 | – | – | Fold (Table 3 summary of hits, Screen ICCB, luciferase relative to DMSO, fed three consecutive days in vials): 0.339 fold
CCCC[C@@H](C=O)NC(=O)[C@H](CC(C)C)NC(=O)OCc1ccccc1 [calpeptin] | −0.235 | 0.849 | – | – | –
Oc1ccc(C=Cc2cc(O)cc(O)c2)cc1 [resveratrol] | −0.551 | 0.682 | – | – | –
CC(=O)N[C@@H](CSC/C=C(\C)CCC=C(C)C)C(=O)O [AGC] | −0.508 | 0.703 | – | – | –
O=C(Nc1ccccc1)c1cc([N+](=O)[O-])ccc1Cl [GW-9662] | −0.581 | 0.669 | – | – | –
CCCCCCCCCCCCCCCCCCc1ccc(C(=O)/C=C/C(=O)O)cc1 [OBAA] | – | – | −0.169 | 0.890 | –
N#C/C(=C\c1cc(Cl)cc(Cl)c1)c1cccnc1 [RG-14620] | −0.483 | 0.715 | – | – | –

Compound | Log2 (fold) (luciferase activity, log2 of the fold difference relative to DMSO controls) [1] | Fold (luciferase activity, fold difference relative to DMSO controls) [2] | Log2 (fold) of luciferase activity relative to DMSO controls (assessed three days later) | Fold (luciferase activity relative to DMSO controls) [3] [fold] | also measured
O=C1NCN(c2ccccc2)C12CCN(CCCC(c1ccc(F)cc1)c1ccc(F)cc1)CC2 [FLUSPIRILINE] | – | – | −0.192 | 0.875 | –
CCCCC[C@H](O)/C=C/C1=C(CCCCCCC(=O)O)C(=O)CC1 [PROSTAGLANDIN B1] | −0.408 | 0.753 | – | – | –
CS(=O)(=O)Nc1ccc([N+](=O)[O-])cc1Oc1ccccc1 [Nimesulide] | −0.264 | 0.833 | – | – | –
CCCCCC(=O)/C=C/C=C\C/C=C\C/C=C\CCCC(=O)O [15-KETOEICOSATETRAENOIC ACID] | −0.266 | 0.832 | – | – | –
COc1cc2ncnc(Nc3cccc(Cl)c3)c2cc1OC [AG1478] | −0.655 | 0.635 | – | – | –
CCN(CC)CCNC(=O)c1ccc(N)cc1 [PROCAINAMIDE] | −0.346 | 0.787 | – | – | –
NCCc1c[nH]c2ccc(O)cc12 [serotonin] | – | – | 0.266 | 1.203 | –
CC(C)=CC[C@@H](O)C1=CC(=O)c2c(O)ccc(O)c2C1=O [Shikonin] | −0.795 | 0.576 | – | – | –
CCN(CC)CC(=O)Nc1c(C)cccc1C [LIDOCAINE] | – | – | 0.049 | 1.035 | –
CCCCCCCCCCCCCCC[C@H](O)[C@@H](N)CO (racemic) [DL-DIHYDROSPHINGOSINE] | – | – | 0.076 | 1.054 | –
Cyclo [Cyclo [Arg-Gly-Asp-D-Phe-Val]] | −0.221 | 0.858 | – | – | –
CCCCCCCCCCCCCCCCOCC(CO)OC(C)=O (stereo not shown) [1-HEXADECYL-2-O-ACETYL-GLYCEROL] | – | – | 0.518 | 1.432 | –
Oc1ccc(-c2nc(-c3ccc(F)cc3)c(-c3ccncc3)[nH]2)cc1 [SB 202190] | −0.222 | 0.857 | – | – | –
CC(C)(C)c1cc(C=C(C#N)C#N)cc(C(C)(C)C)c1O [tyrphostin 9] | – | – | 0.671 | 1.592 | –
CC(C)Cn1c(=O)n(C)c(=O)c2[nH]cnc21 [IBMX] | −0.297 | 0.814 | – | – | –
CCOC(=O)C1=C(C)NC(C)=C(C(=O)OC)C1c1cccc([N+](=O)[O-])c1 (stereo not shown) [NITRENDIPINE] | −0.400 | 0.758 | – | – | –
COC(=O)c1c(C)[nH]c(C)c1C(=O)c1ccccc1Cc1ccccc1 [FPL-64176] | – | – | −0.166 | 0.891 | –
CC1(O)CC23CC(O)C4(O)C(CC(O)C4(C)C)C(C)(O)C2CCC1C3O (stereo not shown) [GR[…]] | −0.553 | 0.682 | – | – | –
CCCCCC(O)CCCC(=O)O (stereo not shown) [5-HYDROXYDECANOATE] | −0.357 | 0.781 | – | – | –
CCCCCCCCCCCCCCCC(=O)N[C@@H](COP(=O)(O)O)C(=O)O [L-NASPA] | – | – | 0.003 | 1.002 | –
C=C1[C@@H](C)[C@H]2[C@H](Cc3ccccc3)NC(=O)[C@]23[C@H](OC(C)=O)/C=C/[C@@](C)(O)C(=O)[C@@H](C)C/C=C/[C@H]3[C@@H]1O [cytochalasin D] | −0.276 | 0.826 | – | – | –
CCCCC[C@@H](/C=C/C=C\C/C=C\C/C=C\CCCC(=O)O)OO [15(S)-HPETE] | – | – | 0.361 | 1.285 | –
COc1ccc(CCN(C)CCc2ccc(OC)c(OC)c2)cc1OC [YS035] | – | – | −0.152 | 0.900 | –
CCCCCCCC/C=C\CCCCCCCCOC[C@H](COP(=O)([O-])OCC[N+](C)(C)C)OC(C)=O [PAF C18:1] | −0.420 | 0.747 | – | – | –
